Values joined by “and” are separate entries in the source; they are usually repeats but may differ in a detail not shown here. Identical values can stand only once.
Legend:
[1] = system: SREBP target gene SCD-1; experiment: RT-PCR detection of SCD-1 gene expression in AN3CA cells; assay type: cell-based, human; details: 10 μM
Experimental: • 1. Experimental reagent • 2. The experimental steps are as follows: • 2.1 AN3CA cell recovery and culture (10% serum 1% double antibody in MEM medium); • 2.2 passages (passage at a ratio of 1:2); • 2.3 Place 6 well plates when the cell status is good, 5×10^5Well, culture overnight; • 2.4 adding medicine: diluting the final concentration of the drug with a culture medium to 10 μM, 2 mL/well; • 2.5 adding medicine for 48 h, and then extracting RNA; • 2.5.1 removing the culture medium, adding 0.5 mL/hole Trizol to lyse the cells, repeatedly blowing and beating the cells by a pipette after 5 min, completely lysing the cells, transferring the cells into a 1.5 mL EP tube without RNase, and standing the tube for 5 min; • 2.5.2 adding 200 µl chloroform, shaking rapidly, mixing, standing for 10 min 12000 rpm/15 min; • 2.5.3 carefully taking out the supernatant, transferring the supernatant into an EP tube, adding isopropanol with the same volume, reversing, uniformly mixing, standing for 10 min, and centrifuging at 12000 rpm/10 min; • 2.5.4 removing the supernatant, adding 1 mL of 75% ethanol for washing, centrifuging at 8000 rpm/5 min once, carefully removing the supernatant, standing at room temperature for 10 min to volatilize the ethanol, and dissolving the precipitate with 40 μL of DEPC treated water when the precipitate becomes transparent; • 2.5.5 RNA concentration was measured and DEPC-treated water was diluted to 100 ng/μL • 2.6 reverse transcription: Kit Takara (PrimeScript RT reagent Kit (Perfect Real Time)

[2] = molecular target: T1, And-1 (Homo sapiens, UniProt O75717); experiment: inhibition of And-1 in OV90 CR cells; assay type: cell-based; set-up: endogenous in cells; details: inhibition of And-1, OV90 CR cells
T1 sequence (O75717 1-1129): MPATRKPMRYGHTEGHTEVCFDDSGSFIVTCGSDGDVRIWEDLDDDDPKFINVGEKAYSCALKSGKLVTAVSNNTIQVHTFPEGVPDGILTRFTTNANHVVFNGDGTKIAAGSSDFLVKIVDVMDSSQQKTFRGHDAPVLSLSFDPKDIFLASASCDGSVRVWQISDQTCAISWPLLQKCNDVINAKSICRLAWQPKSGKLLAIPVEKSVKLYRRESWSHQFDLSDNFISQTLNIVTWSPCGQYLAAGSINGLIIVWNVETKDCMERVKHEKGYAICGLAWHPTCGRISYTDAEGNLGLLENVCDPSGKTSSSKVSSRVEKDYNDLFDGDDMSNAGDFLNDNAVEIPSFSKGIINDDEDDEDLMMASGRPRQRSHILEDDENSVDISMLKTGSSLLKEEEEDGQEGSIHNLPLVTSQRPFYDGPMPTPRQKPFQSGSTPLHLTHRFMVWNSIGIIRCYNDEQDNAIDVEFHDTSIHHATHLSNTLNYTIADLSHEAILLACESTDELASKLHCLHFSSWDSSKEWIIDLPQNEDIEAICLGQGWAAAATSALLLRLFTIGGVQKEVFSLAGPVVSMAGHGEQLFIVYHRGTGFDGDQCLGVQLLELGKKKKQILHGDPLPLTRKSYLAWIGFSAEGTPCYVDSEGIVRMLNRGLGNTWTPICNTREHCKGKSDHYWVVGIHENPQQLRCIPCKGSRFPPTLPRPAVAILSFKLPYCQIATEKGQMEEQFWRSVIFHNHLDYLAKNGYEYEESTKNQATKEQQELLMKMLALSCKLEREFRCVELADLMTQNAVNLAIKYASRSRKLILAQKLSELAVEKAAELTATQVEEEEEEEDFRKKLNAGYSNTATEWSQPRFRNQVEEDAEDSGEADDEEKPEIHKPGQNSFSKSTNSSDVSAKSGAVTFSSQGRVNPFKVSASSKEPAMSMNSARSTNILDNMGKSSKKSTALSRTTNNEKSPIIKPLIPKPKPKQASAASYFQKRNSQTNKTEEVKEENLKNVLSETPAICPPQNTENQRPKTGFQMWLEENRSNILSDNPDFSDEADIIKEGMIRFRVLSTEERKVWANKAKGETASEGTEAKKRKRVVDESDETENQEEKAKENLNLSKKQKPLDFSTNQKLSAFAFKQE

[3] = molecular target: T1, And-1; experiment: Western blot detection of And-1 protein expression in A549 cells; assay type: cell-based; set-up: endogenous in cells; host or cells: A549; details: A549 cell line, 5 μM, 24 hours
Experimental: Select the A549 cells in good growth condition and inoculate them in a 60 mm petri dish at a density of 500,000. After culturing in a constant temperature incubator at 37° C. and 5% CO2 for 24 hours, add different compounds of the same concentration (5 μM) and continue culturing for 24 hours before collecting Cells were subjected to Western blotting experiments to compare with untreated cells to detect the inhibitory effect of each compound on the expression of And-1 protein.

[4] = molecular target: T1, And-1; experiment: inhibition of And-1 in IGROV1 CR cells; assay type: cell-based; set-up: endogenous in cells; host or cells: IGROV1 CR; details: inhibition of And-1, IGROV1 CR cells

OB1OCc2cc(/C=C/c3ccc(Cl)c(Cl)c3)ccc21 [III, (E)-5-(3,4-dichlorostyryl)benzo[c][1,2]oxaborol-1(3H)-ol]
Relative mRNA expression of SCD-1 ([1]; AN3CA cells, 48 h, DMSO = 1): 0.64
inhibitory effect on Srebp ([1]; human endometrial cancer AN3CA cells): high inhibitory effect
IC50 [2]: 13.3 µM
expression of And-1 protein (Western blot) [3]: significantly inhibit
IC50 [4]: 7.8 µM and 7.83 µM
